Data published in US7655392B2, “Quenching methods for red blood cell inactivation process” (priority 2004, dated 2010).
Read-outs that look alike come from different tables or passages of the source.

Key:
[1] = pH of quencher stock and of RBC mixture; format: physicochemical; settings: for pH of stock quencher: room temperature
Description: The effect of various quenching conditions on the pH of a red blood cell composition was determined for various treatment conditions. The quencher solutions were prepared at a concentration of 600 mM in 8% dextrose monohydrate. […] Glutathione was assessed at 2 mM (acidic) or 20 mM (2 eq. of base). […] The pH of the quencher solution, either unmodified or neutralized, was measured using a standard Epoxy Calomel electrode (Beckman Instruments) at room temperature. […] The samples were mixed and the pH at room temperature was measured using the same electrode as described above.
In these, the appropriate amount of 600 mM stock was added, mixed with an appropriate volume of 8% dextrose to provide the same volume addition to each RBC sample where in one study, with varied glutathione concentrations, the pH was measured after adding glutathione and after adding PIC-1. […] Similar samples were also assessed for the inactivation of S. epidermidis. […] For gel card analysis, after incubation, the RBC were washed in BBS and were diluted in BBS to a final hematocrit of 4%. A 25 μL aliquot of each was mixed with 15 μL of rabbit polyclonal anti-acridine sera diluted either 1:4 or 1:100 in BBS and the mixture was incubated at 37° C. for 30 minutes. The cells were subsequently washed with 1.5 mL BBS. After washing was complete, the cells were mixed with goat anti-rabbit Fab′2 fragment anti H+L chains (1:4 dilution in PBS) and incubated at 37° C. for 30 minutes.

red blood cells = format: cell-based; settings: 20 mM Cys+2 eq NaOH only, no PIC-1
Description: In another assay, the rabbit polyclonal sera may be reacted with treated red blood cells. After washing off unbound antibody, a FITC labeled goat anti-rabbit Fab′2 fragment (anti H+L chains, Caltag) is added. The binding of FITC label to the red blood cells correlates with the amount of acridine bound to the red blood cell surface, and is assessed by FACScan™ analysis (Becton, Dickinson and Co., NJ). The relative modification of the red blood cells is determined from the FACScan™ mean fluorescence value.
A 20 mL sample of leukoreduced whole blood (Blood Source, Sacramento, Calif.) was centrifuged at 4,100×g for 5 minutes at room temperature in each of four 50 mL centrifuge tubes. The supernatant was removed from each tube to provide red cell concentrate (RCC). […] For each washed RCC, cells were resuspended in 5 mL of the solution used for washing. This is now referred to as the RBC test sample. […] These samples were incubated for 20 hours at room temperature. After incubation, the RBC were washed in BBS (Blood Bank Saline, 0.9% saline, unbuffered, Fisher Scientific) and were diluted to a final hematocrit of 4%. A 25 μL aliquot of each was mixed with 15 μL of rabbit polyclonal anti-acridine sera diluted 1:100 in BBS and the mixture was incubated at 37° C. for 30 minutes. The cells were subsequently washed with 1.5 mL BBS. After washing was complete, the cells were mixed with 50 μL of FITC labeled goat anti-rabbit Fab′2 fragment (1:64 dilution in BBS) and incubated at 37° C. for 30 minutes. […] Note that the quenching improves as glutathione is neutralized with increasing amounts of sodium hydroxide.
The FACScan analysis of the binding of rabbit anti-acridine sera to treated red cells was used to assess a variety of quenching conditions. […] The tables represent data from two different experiments, each with samples treated under standard conditions or with 20 mM neutralized glutathione. […] The data within an experiment provides the relative efficacy of the various treatments. Because the assay may depend on the lot of red blood cells used, the absolute values of mean fluorescence may vary from one study to the next, such that relative values should only be compared within a given experiment. […] Neutralized glutathione at 20 mM results in close to background levels.
An untreated control sample as well as a standard sample (co-addition of 2 mM acidic glutathione with 0.2 mM PIC-1) were also assessed.
Full units of red cell concentrates (Interstate Blood Bank, Inc., Memphis, Tenn.) were leukoreduced. A volume of 200 mL of this RCC (80% hematocrit) was mixed with 94 mL of Erythrosol or 100 mL of Adsol (Baxter Healthcare Corp., Deerfield, Ill.) as control (unit 1). A volume of 20 mL 8% dextrose was used to dissolve PIC-1 (mg) and acid glutathione (mg) and added to one unit to provide 0.2 mM PIC-1 and 2 mM glutathione (unit 2). […] For the glutathione, 1.2 mL of 10 N NaOH was added (2 equivalents). The PIC-1 was mixed with the unit, followed 1 minute later (unit 3) or 5 minutes later (unit 4) by glutathione. For unit 5, neutralized glutathione was mixed first, followed 10 minutes later by the PIC-1. […] All units were mixed by grasping the ends of the blood bag and mixing in a FIG. 8 motion 30 times. These were then incubated at room temperature for 20 hours total. A compound adsorption device (CAD), comprising a polymeric resin contained within a mesh pouch, was used for all but the control sample. This device is intended to remove residual PIC-1, PIC-1 breakdown products, and glutathione from the samples. Samples were incubated for 8 hours, then transferred to a second blood bag containing the CAD and incubated for an additional 12 hours. Following the room temperature incubation, samples were transferred to a refrigerator (4° C.) and stored up to 43 days.

Serratia marcescens = format: cell-based; settings: Table 5B: 20 mM Cys+2 eq base only, no PIC-1
[2] = tested on: Staphylococcus epidermidis; assay: Inactivation of Staphylococcus epidermidis in RBC (colony count); settings: Table 5C: 20 mM cysteine+1 eq base only, no PIC-1
Description: Whole blood (Blood Source, Sacramento, Calif.) was used to prepare a red blood cell (RBC) composition by centrifuging to provide packed RBC (34 mL of approximately 90% hematocrit), then adding 17 mL Erythrosol to a hematocrit of approximately 60%. Erythrosol is a red blood cell additive (Baxter Healthcare Corp., Deerfield, Ill.) that may be prepared by combining sodium citrate dihydrate (7.82 g); sodium acid phosphate dihydrate (0.73 g); sodium phosphate dihydrate (3.03 g); adenine (0.22 g); mannitol (7.74 g); and glucose (9 g) in 1 liter of distilled water. The bacterial preparation was then added ( 1/100th of the total volume) to the RBC/Erythrosol to provide contaminated RBC. The contaminated RBC was divided into several samples and treated according to Table 2, where PIC-1 is β-alanine, N-(acridin-9-yl), 2-[bis(2-chloroethyl)amino]ethyl ester. The PIC-1 and glutathione (Aldrich, St. Louis, Mo.) were dissolved in a solution of 8% dextrose monohydrate at about 15× the desired concentration in the final red blood cell composition when added together, or 30× when added separately. […] For separate addition using 20 mM neutralized glutathione, PIC-1 is prepared by dissolving 7.6 mg in 2.5 mL of 8% dextrose, glutathione is prepared by dissolving 460 mg in 1.9 mL of 8% dextrose and mixing with 0.6 mL of 5N NaOH, then adding 165 μL of each solution to 4.67 mL RBC in the appropriate order. Following treatment, the samples were incubated for 2 hours, and 100 μL of each was serially diluted and plated on LB plates. These were incubated overnight at 37° C. in order to assess bacterial growth. The bacterial titer was determined by counting colonies on the plates and based on the dilution of the plate, the titer was determined. For example, with 10-fold serial dilutions, 30 colonies counted on the 5th dilution of the original solution, where 0.1 mL are plated, would indicate an initial titer of (30×10^5)/0.1=3×10^7, or 7.47 log. […] Note that for most samples in Table 2A the PIC-1 and glutathione were formulated together. […] The study was repeated with sequential addition of the two components, as indicated in Table 2B (time delay of 0 indicates they were added in the same solution).
Additional studies were done using S. epidermidis, where the overnight culture was used without dilution. […] PIC-1 is at 0.2 mM in all samples.
For these samples, the NaOH stock was prepared at 10N and appropriate volumes of the various components were used following the procedures above. Standard conditions and/or 20 mM neutralized glutathione (GSH) were run for comparison.

[3] = 600 mM in 8% dextrose + 1 eq. base
[4] = Table 10: RBC + 20 mM quencher + 1 eq. base + 0.2 mM PIC-1
[5] = Table 10: RBC + 20 mM quencher + 2 eq. base + 0.2 mM PIC-1

SMILES	pH of stock quencher [1, 3]	pH of final mixture [1, 4]	pH of final mixture [1, 5]	pH of final mixture ([1]; Table 10: RBC + 20 mM quencher, no base + 0.2 mM PIC-1)	mean fluorescence (red blood cells; Table 9A: control)	mean fluorescence (red blood cells; Table 9B: control)	Log S. marcescens reduction (Serratia marcescens)	Log S. marcescens titer (Serratia marcescens)	Log S. epidermidis reduction [2]	Log S. epidermidis titer [2]	pH of stock quencher ([1]; 600 mM in 8% dextrose + 2 eq. base)
CC(=O)N[C@@H](CS)C(=O)O [N-acetyl cys, N-acetyl cysteine]	6	6.7	–	–	–	–	–	–	–	–	–
N[C@@H](CS)C(=O)O [cysteine]	–	7.4	7.8	6.5	1.9	1.99	0.3 Log	7.3 Log	0.1 Log	7.1 Log	–
CSCC[C@H](N)C(=O)O [methionine, reference compound]	11.2	7.5	8	–	–	–	–	–	–	–	13.1
